From ChEMBL document CHEMBL1133460, “Synthesis and biological evaluation of certain alpha,beta-unsaturated ketones and their corresponding fused pyridines as antiviral and cytotoxic agents” (J Med Chem, 2000)
In brackets after ≈: the same amount, converted by molar mass. Several values for one entry are separate records, joined by “and”; a condition that tells them apart may be missing. Equal values may be shown once.

How the values were obtained:
[1] = test system: Tumor cell line; assay: (§1) In vitro median growth inhibitory concentration against breast cancer cell lines; format: functional; details: Homo sapiens
[2] = In vitro median growth inhibitory concentration against colon cancer cell lines; format: functional; details: Homo sapiens
[3] = test system: Ovarian cancer cell line; assay: In vitro median growth inhibitory concentration against ovarian cancer cell lines; format: functional; details: Homo sapiens
[4] = test system: Panel CNS (Carcinoma cell lines); assay: In vitro median growth inhibitory concentration against CNS cancer cell lines; format: functional; details: Homo sapiens
[5] = test system: Panel renal (Carcinoma cell lines); assay: In vitro median growth inhibitory concentration against renal cancer cell lines; format: functional; details: Homo sapiens
[6] = test system: Panel leukemia (Carcinoma cell lines); assay: In vitro median growth inhibitory conc. against leukemia was estimated.; format: functional; details: Homo sapiens
[7] = Full panel mean-graph midpoint (MG-MID)
[8] = test system: MT4; assay: In vitro inhibitory activity against uninfected T4 cells; format: functional, cell-based; details: Homo sapiens
[9] = test system: Panel melanoma (Carcinoma cell lines); assay: In vitro median growth inhibitory concentration against melanoma cell lines; format: functional; details: Homo sapiens
[10] = species on record: Homo sapiens; assay: Selectivity ratio between the full panel MG-MID and leukemia subpanel MG-MID was determined.; format: functional
[11] = test system: Panel prostate (Carcinoma cell lines); assay: In vitro median growth inhibitory concentration against prostate cancer cell lines; format: functional; details: Homo sapiens
[12] = test system: NSCLC; assay: In vitro median growth inhibitory concentration against non-small-cell lung cancer; format: functional; details: Homo sapiens
[13] = test system: Human immunodeficiency virus 1; assay: In vitro effective concentration against HIV-1 cytopathic effect in T4 cells; Inactive; format: functional, organism-based
[14] = test system: Human alphaherpesvirus 1; assay: 50% loss of the monolayer present around the viral plaques in uM; format: functional, organism-based
[15] = test system: Panel leukemia (Carcinoma cell lines); assay: In vitro growth inhibitory concentration against leukemia tumor cell lines; format: functional; details: Homo sapiens
[16] = test system: Breast cancer cell line; assay: In vitro growth inhibitory concentration against breast cancer cell lines; format: functional; details: Homo sapiens
[17] = test system: Breast cancer cell line; assay: as §1; format: functional; details: Homo sapiens
[18] = test system: Panel renal (Carcinoma cell lines); assay: In vitro growth inhibitory concentration against renal cancer cell lines; format: functional; details: Homo sapiens
[19] = test system: Human alphaherpesvirus 1; assay: Minimum antiviral concentration proved to be lethal to viral population in ug/mL.; format: functional
[20] = In vitro growth inhibitory concentration against colon cancer tumor cell lines; format: functional; details: Homo sapiens
[21] = test system: Panel CNS (Carcinoma cell lines); assay: In vitro growth inhibitory concentration against CNS cancer cell lines; format: functional; details: Homo sapiens
[22] = test system: Ovarian cancer cell line; assay: In vitro growth inhibitory concentration against ovarian cancer cell lines; format: functional; details: Homo sapiens
[23] = test system: Human alphaherpesvirus 1; assay: Minimum antiviral concentration proved to be lethal to viral population in uM; format: functional
[24] = test system: Panel melanoma (Carcinoma cell lines); assay: In vitro growth inhibitory concentration against melanoma cancer cell lines; format: functional; details: Homo sapiens
[25] = test system: Panel prostate (Carcinoma cell lines); assay: In vitro growth inhibitory concentration against prostate cancer cell lines; format: functional; details: Homo sapiens
[26] = test system: Human alphaherpesvirus 1; assay: In vitro antiviral activity against Herpes Simplex-1 virus (HSV-1) expressed as percent reduction in the number of viral plaques; format: functional; design: concentration or dose not given beside the values
[27] = test system: Human alphaherpesvirus 1; assay: concentration caused 50% loss of the monolayer present around the viral plaques in ug/mL.; format: functional, organism-based
[28] = test system: Tumor cell line; assay: In vitro growth inhibitory concentration against non-small-cell lung cancer cell lines; format: functional; details: Homo sapiens

SMILES | GI50 [2] [µM] | GI50 [3] [µM] | GI50 [4] [µM] | GI50 [5] [µM] | GI50 [6] [µM] | MG-MID [7] | IC50 [8] [µM] | GI50 [9] [µM] | Ratio [10] | GI50 [11] [µM] | GI50 [12] [µM] | EC50 [13] | other results
COc1ccc(/C=C2\CN(C)CC3C2=NN(c2ccccc2)C3c2ccc(OC)cc2)cc1 (stereo not given) | > 100 | 80.7 | 63.1 | 54.7 | > 100 | 72.9 µM | > 200 | 77.7 | 0.7 | > 100 | 82.1 | Not Active | GI50 [1]: 91.8 µM
Cc1ccc(/C=C2\CN(C)CC3=C2N=C(S)NC3c2ccc(C)cc2)cc1 (stereo not given) | 37.1 | 51.2 | 53.7 | 60.8 | 19.2 | 34.5 µM and 86.5 µM | 27.6 | 58.8 | 1.8 | 38.3 | 59.6 | Not Active | IC50 [14]: 190 nM; TGI [15]: 62.3 µM; TGI [16]: 88.8 µM; GI50 [17]: 39.4 µM; TGI [18]: 96.9 µM; MAC [19]: 0.1 µg/mL; TGI [20]: 83.6 µM; TGI [21]: 94.1 µM; TGI [22]: 94 µM; MAC [23]: 0.27 µM; TGI [24]: > 100 µM; TGI [25]: > 100 µM; Reduction [26]: 45%; IC50 [27]: 0.07 µg/mL (≈ 0.186 µM); TGI [28]: 89.9 µM
